Source: patent US9896445B2, “Heterocyclic inhibitors of ERK1 and ERK2 and their use in the treatment of cancer” (Asana Biosciences, LLC, priority 2015, dated 2018)

Assays:
ERK2 = biological target: T1, ERK2 (Homo sapiens, UniProt P28482); test: ERK2 HTRF (biochemical) assay; conditions: HTRF
T1 construct: purchased Jubilant Biosys
Procedure: (§1) ERK1 and ERK2 HTRF (Biochemical) Assays
These assays employed a homogeneous time resolved fluorescence (HTRF) technique. The compounds were serially diluted by half-log with concentrations ranging from 0.0005 to 10 uM in the assay buffer (50 mM Tris pH=7.5, 1 mM EGTA, 2 mM DTT, 10 mM MgCl2, 0.1% Tween-20) and 20 uL of substrate-ATP mix [1 uM Biotin-LC-Myelin Basic Protein (MBP) derivatized Peptide (Anaspec)-24 uM ATP (Sigma)] was added to each well of the assay plate. Then 10 uL of enzyme mix [25 nM ERK1 or ERK2 (Jubilant Biosys) in assay buffer] was added to each well. The plate was incubated at room temperature for 60 min with shaking. The HTRF mix [625 nM LANCE® Ultra Europium-anti-phospho-MBP (Perkin Elmer) and 2 nM Phycolink® Streptavidin-Allophycocyanin (SA-APC) (Prozyme) in HTRF buffer (50 mM Tris-HCl pH=7.5, 100 mM NaCl, 0.1% BSA, 0.05% Tween20, 0.5 mM EDTA)] was prepared and 75 uL of this mix was added to the HTRF plate. After incubation for 60 min at room temperature, 10 uL of the reaction mixture was transferred to the HTRF assay plate and incubated for 45 min at room temperature with shaking. Plate was read using Pherastar in HTRF mode (excitation 337 nm, emission 665 & 620 nm). The IC50 values (half maximal inhibitory concentration values) were subsequently determined using a sigmoidal dose-response curve (variable slope) in GraphPad Prism® 5 software.

ERK1 = biological target: T2, ERK1 (Homo sapiens, UniProt P27361); test: ERK1 HTRF (biochemical) assay; conditions: HTRF
T2 construct: purchased Jubilant Biosys
T2 sequence (P27361 whole entry): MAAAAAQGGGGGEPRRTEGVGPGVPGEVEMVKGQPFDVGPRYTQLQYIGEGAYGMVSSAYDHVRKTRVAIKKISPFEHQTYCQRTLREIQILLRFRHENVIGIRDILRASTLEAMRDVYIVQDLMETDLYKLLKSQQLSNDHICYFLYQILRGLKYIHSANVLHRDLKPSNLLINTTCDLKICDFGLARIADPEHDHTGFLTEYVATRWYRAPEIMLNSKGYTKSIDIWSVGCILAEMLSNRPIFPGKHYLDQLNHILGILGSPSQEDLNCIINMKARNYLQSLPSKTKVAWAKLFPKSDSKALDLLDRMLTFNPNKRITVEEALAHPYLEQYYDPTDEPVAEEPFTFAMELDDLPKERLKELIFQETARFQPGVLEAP
Procedure: as §1
These assays employed a homogeneous time resolved fluorescence (HTRF) technique. […] The plate was incubated at room temperature for 60 min with shaking. […] The IC50 values (half maximal inhibitory concentration values) were subsequently determined using a sigmoidal dose-response curve (variable slope) in GraphPad Prism® 5 software.

T1 sequence (P28482 whole entry): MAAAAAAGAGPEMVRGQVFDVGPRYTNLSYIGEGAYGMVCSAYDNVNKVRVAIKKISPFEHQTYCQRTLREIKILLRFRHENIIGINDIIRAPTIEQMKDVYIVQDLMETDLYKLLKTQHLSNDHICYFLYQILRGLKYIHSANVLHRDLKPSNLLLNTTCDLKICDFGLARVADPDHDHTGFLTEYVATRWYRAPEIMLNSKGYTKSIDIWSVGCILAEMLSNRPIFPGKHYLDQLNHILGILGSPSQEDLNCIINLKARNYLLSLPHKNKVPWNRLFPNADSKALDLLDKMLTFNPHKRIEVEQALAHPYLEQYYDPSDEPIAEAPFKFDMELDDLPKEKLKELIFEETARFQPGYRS

| Structure (SMILES) | IC50 (ERK2) [nM] | IC50 (ERK1) [nM] |
| --- | --- | --- |
| Cc1cnc(Nc2ccc(F)cc2Cl)nc1-n1cc(C(=O)N[C@H](CO)c2cccc(Cl)c2)cn1 [Compound 35, (S)-1-(2-((2-chloro-4-fluoro-phenyl)amino)-5-methylpyrimidin-4-yl)-N-(1-(3-chloro-phenyl)-2-hydroxy-ethyl)-1H-pyrazole-4-carboxamide] | ≤ 50 | < 50 |
| Cc1cnc(NC2CCOCC2)nc1-n1cnc(C(=O)NCc2ccccc2CCO)c1 [Compound 243, N-(2-(2-hydroxy-ethyl)benzyl)-1-(5-methyl-2-((tetrahydro-2H-pyran-4-yl)amino)pyrimidin-4-yl)-1H-imidazole-4-carboxamide] | ≤ 50 | < 50 |
| CC[C@@H](CO)Nc1ncc(C)c(-n2ccc(C(=O)N[C@H](CO)c3ccc(F)c(Cl)c3)c2)n1 [Compound 133, N-((S)-1-(3-chloro-4-fluorophenyl)-2-hydroxyethyl)-1-(2-(((S)-1-hydroxy-butan-2-yl)amino)-5-methylpyrimidin-4-yl)-1H-pyrrole-3-carboxamide] | ≤ 50 | < 50 |
| Cc1cnc(NC2CCN(C)CC2)nc1-n1cnc(C(=O)N[C@H](CO)c2cccc(Cl)c2)c1 [Example 296, (S)-N-(1-(3-chlorophenyl)-2-hydroxyethyl)-1-(5-methyl-2-((1-methylpiperidin-4-yl)amino)-pyrimidin-4-yl)-1H-imidazole-4-carboxamide] | ≤ 50 | < 50 |
| Cc1cnc(Nc2ccc3c(c2)OC(F)(F)O3)nc1-n1ccc(C(=O)NC(CO)c2cccc(Cl)c2)c1 (stereo not shown) [Compound 62, N-(1-(3-chloro-phenyl)-2-hydroxyethyl)-1-(2-((2,2-difluoro-benzo[d][1,3]dioxol-5-yl)amino)-5-methylpyrimidin-4-yl)-1H-pyrrole-3-carboxamide] | ≤ 50 | < 50 |
| O=C(N[C@H](CO)c1cccc(Cl)c1)c1cnn(-c2ccnc(Nc3ccccc3)n2)c1 [Compound 53, (S)-N-(1-(3-chlorophenyl)-2-hydroxyethyl)-1-(2-(phenylamino)pyrimidin-4-yl)-1H-pyrazole-4-carboxamide] | 100 to 500 | 100 to 500 |
| O=C(N[C@H](CO)c1cccc(Cl)c1)c1cn(-c2ccnc(NC3CCOC3)c2)cn1 (stereo partly drawn) [Compound 170, N-((S)-1-(3-chlorophenyl)-2-hydroxyethyl)-1-(2-((tetrahydrofuran-3-yl)amino)pyridin-4-yl)-1H-imidazole-4-carboxamide] | ≤ 50 | < 50 |
| CC(NC(=O)Nc1cnn(-c2ccnc(Nc3ccccc3Cl)n2)c1)c1cccc(Cl)c1 (stereo not shown) [Compound 5, 1-(1-(2-((2-chlorophenyl)amino)pyrimidin-4-yl)-1H-pyrazol-4-yl)-3-(1-(3-chloro-phenyl)ethyl)urea] |  | 100 to 500 |
| C[C@@H](NC(=O)Nc1cnn(-c2ccnc(Nc3ccccc3Cl)n2)c1)c1cccc(Cl)c1 [Compound 10] | > 2500 |  |
| Cc1cnc(Nc2ccc(F)cc2Cl)nc1-n1ccc(C(=O)N[C@@H](CN(C)C)c2ccccc2)c1 [Compound 97, (R)-1-(2-((2-chloro-4-fluorophenyl)amino)-5-methy-lpyrimidin-4-yl)-N-(2-(dimethylamino)-1-phenylethyl)-1H-pyrrole-3-carboxamide] | 100 to 500 |  |
| Cc1cnc(NC2CCOCC2)nc1-n1ccc(C(=O)NC(CO)c2ccccc2)c1 (stereo not shown) [Compound 120, N-(2-hydroxy-1-phenylethyl)-1-(5-methyl-2-((tetrahydro-2H-pyran-4-yl)amino)pyrimidin-4-yl)-1H-pyrrole-3-carboxamide] | 100 to 500 |  |
| Cc1cnc(Nc2ccc3c(c2)OCO3)nc1-n1cc(C(=O)N[C@H](CO)c2cccc(Cl)c2)cn1 [Compound 50, (S)-1-(2-(benzo[d][1,3]dioxol-5-ylamino)-5-methylpyrimidin-4-yl)-N-(1-(3-chloro-phenyl)-2-hydroxy-ethyl)-1H-pyrazole-4-carboxamide] | ≤ 50 |  |
| Cc1cnc(Nc2ccc3ocnc3c2)nc1-n1ccc(C(=O)NC(CO)c2ccccc2)c1 (stereo not shown) [Compound 104] | 100 to 500 |  |
| Cc1cnc(Nc2ccc(F)cc2Cl)nc1-n1cc(NC(=O)N[C@@H](CO)c2cccc(Cl)c2)cn1 [Compound 56, (R)-1-(1-(2-((2-chloro-4-fluoro-phenyl)amino)-5-methylpyrimidin-4-yl)-1H-pyrazol-4-yl)-3-(1-(3-chloro-phenyl)-2-hydroxy-ethyl)urea] | 100 to 500 |  |
| O=C(NC(CO)c1ccccc1)c1ccn(-c2nc(Nc3ccc(F)cc3Cl)ncc2C(F)(F)F)c1 (stereo not shown) [Compound 122, 1-(2-((2-chloro-4-fluorophenyl)amino)-5-(trifluoro-methyl)pyrimidin-4-yl)-N-(2-hydroxy-1-phenylethyl)-1H-pyrrole-3-carboxamide] | > 2500 |  |
| Cc1c(NC(=O)N[C@H](CO)c2cccc(Cl)c2)cnn1-c1ccnc(Nc2ccccc2Cl)n1 [Compound 11, (S)-1-(1-(3-chlorophenyl)-2-hydroxyethyl)-3-(1-(2-((2-chloro-phenyl)amino)pyrimidin-4-yl)-5-methyl-1H-pyrazol-4-yl)urea] | > 2500 |  |
| Cc1cnc(Nc2ccccc2Cl)nc1-n1cc(NC(=O)N[C@@H](CO)c2cccc(Cl)c2)cn1 [Compound 61, (R)-1-(1-(3-chlorophenyl)-2-hydroxyethyl)-3-(1-(2-((2-chloro-phenyl)amino)-5-methylpyrimidin-4-yl)-1H-pyrazol-4-yl)urea] | 500 to 2500 |  |
| Cc1cnc(Nc2ccc3occc3c2)nc1-n1ccc(C(=O)NC(CO)c2ccccc2)c1 (stereo not shown) [Compound 65, 1-(2-(benzofuran-5-ylamino)-5-methylpyrimidin-4-yl)-N-(2-hydroxy-1-phenylethyl)-1H-pyrrole-3-carboxamide] | ≤ 50 |  |
| Cc1cnc(Nc2ccc(F)cc2Cl)nc1-n1cc(NC(=O)N[C@H](CO)c2ccc(F)c(Cl)c2)cn1 [Compound 26, (S)-1-(1-(3-chloro-4-fluorophenyl)-2-hydroxyethyl)-3-(1-(2-((2-chloro-4-fluorophenyl)amino)-5-methyl-pyrimidin-4-yl)-1H-pyrazol-4-yl)urea] |  | < 50 |
| O=C(NC(CO)c1cccc(Cl)c1)c1cnn(-c2ccnc(Nc3ccccc3)n2)c1 (stereo not shown) [Compound 52, N-(1-(3-chloro-phenyl)-2-hydroxy-ethyl)-1-(2-(phenyl-amino)pyrimidin-4-yl)-1H-pyrazole-4-carboxamide] | 100 to 500 |  |
| COc1cc(N2CCN(C(C)=O)CC2)ccc1Nc1nccc(-n2cc(NC(=O)N[C@H](CO)c3cccc(Cl)c3)cn2)n1 [Compound 15, (S)-1-(1-(2-((4-(4-acetylpiperazin-1-yl)-2-methoxy-phenyl)amino)pyrimidin-4-yl)-1H-pyrazol-4-yl)-3-(1-(3-chlorophenyl)-2-hydroxyethyl)urea] |  | 50 to 100 |
| O=C(NCc1cccc(Cl)c1)Nc1cnn(-c2ccnc(Nc3ccccc3Cl)n2)c1 [Compound 9, 1-(3-chlorobenzyl)-3-(1-(2-((2-chloro-phenyl)amino)pyrimidin-4-yl)-1H-pyrazol-4-yl)urea] | > 2500 |  |
| Cc1cnc(Nc2ccc(F)cc2Cl)nc1-n1cc(NC(=O)N[C@H](CO)c2cccc(Cl)c2)cn1 [Compound 25, (S)-1-(1-(2-((2-chloro-4-fluoro-phenyl)amino)-5-methylpyrimidin-4-yl)-1H-pyrazol-4-yl)-3-(1-(3-chloro-phenyl)-2-hydroxy-ethyl)urea] |  | < 50 |
| NCC(Cc1ccccc1)NC(=O)c1ccn(-c2ccnc(Nc3ccc(F)cc3)c2)c1 (stereo not shown) [Compound 119, N-(1-amino-3-phenylpropan-2-yl)-1-(2-((4-fluoro-phenyl)amino)pyridin-4-yl)-1H-pyrrole-3-carboxamide] | 100 to 500 |  |
